In patent publication EP4316461A1, “A PRESERVATIVE COMPOSITION” (BRAIN Biotech AG, priority 2022, dated 2024):
In brackets after ≈: the same amount, converted by molar mass.

Legend:
Assay in all cases: Antimicrobial activity (MIC)
Format in all cases: cell-based
[1] = system: Clostridium sporogenes; conditions: Clostridium sporogenes, ATCC19404; Strain ID ATCC 19404; potato dextrose broth pH 3.8; read-out: Minimal Inhibitory Concentration (MIC)
[2] = system: Lactobacillus paracasei ssp. paracasei; conditions: Lacticaseibacillus paracasei, DSM46331; Strain ID DSM 46331; potato dextrose broth pH 3.8; read-out: Minimal Inhibitory Concentration (MIC)
[3] = system: Bacillus licheniformis; conditions: Bacillus licheniformis, DSM13; Strain ID DSM 13; potato dextrose broth pH 3.8; read-out: Minimal Inhibitory Concentration (MIC)
[4] = system: Alternaria alternata; conditions: Alternaria alternata, DSM12633; Strain ID DSM 12633; potato dextrose broth pH 3.8; read-out: Minimal Inhibitory Concentration (MIC)
[5] = system: Campylobacter jejuni; conditions: Campylobacter jejuni, DSM4688; Strain ID DSM 4688; potato dextrose broth pH 3.8; read-out: Minimal Inhibitory Concentration (MIC)
[6] = system: Salmonella enterica ssp. enterica Ser. typhimurium; conditions: Salmonella enterica, DSM 17058 / TYPHIMURIUM; Strain ID DSM 17058; potato dextrose broth pH 3.8; read-out: Minimal Inhibitory Concentration (MIC)
[7] = system: Candida albicans; conditions: Candida albicans; Strain ID ATCC10231; potato dextrose broth pH 3.8; read-out: Minimal Inhibitory Concentration (MIC)
[8] = system: Staphylococcus aureus; conditions: Staphylococcus aureus, DSM2569; Strain ID DSM 2569; potato dextrose broth pH 3.8; read-out: Minimal Inhibitory Concentration (MIC)
[9] = system: Corynebacterium xerosis; conditions: Corynebacterium xerosis, DSM20743; Strain ID DSM 20743; potato dextrose broth pH 3.8; read-out: Minimal Inhibitory Concentration (MIC)
[10] = system: Gluconacetobacter liquefaciens; conditions: Gluconacetobacter liquefaciens, DSM5603; Strain ID DSM 5603; potato dextrose broth pH 3.8; read-out: Minimal Inhibitory Concentration (MIC)
[11] = system: Listeria monocytogenes; conditions: Listeria monocytogenes, DSM20600; Strain ID DSM 20600; potato dextrose broth pH 3.8; read-out: Minimal Inhibitory Concentration (MIC)
[12] = system: Cutibacterium acnes; conditions: Cutibacterium acnes, DSM1897; Strain ID DSM 1897; potato dextrose broth pH 3.8; read-out: Minimal Inhibitory Concentration (MIC)
[13] = system: Pseudomonas aeruginosa; conditions: Pseudomonas aeruginosa, DSM1117; Strain ID DSM 1117; potato dextrose broth pH 3.8; read-out: Minimal Inhibitory Concentration (MIC)
[14] = system: Candida parapsilosis; conditions: Lodderomyces parapsilosis, ATCC20384; Strain ID ATCC 20384; potato dextrose broth pH 3.8; read-out: Minimal Inhibitory Concentration (MIC)
[15] = system: Actinomyces viscosus; conditions: Actinomyces viscosus; Strain ID DSM43798; potato dextrose broth pH 3.8; read-out: Minimal Inhibitory Concentration (MIC)
[16] = system: Byssochlamys fulva; conditions: Paecilomyces fulvus, DSM1808; Strain ID DSM 1808; potato dextrose broth pH 3.8; read-out: Minimal Inhibitory Concentration (MIC)
[17] = system: Phanerochaete chrysosporium; conditions: Phanerodontia chrysosporium, DSM1556; Strain ID DSM 1556; potato dextrose broth pH 3.8; read-out: Minimal Inhibitory Concentration (MIC)
[18] = system: Cladosporium cladosporioides; conditions: Cladosporium cladosporioides; Strain ID DSM19653; potato dextrose broth pH 3.8; read-out: Minimal Inhibitory Concentration (MIC)
[19] = system: Alicyclobacillus acidoterrestris; conditions: Alicyclobacillus acidoterrestris, DSM2498; Strain ID DSM 2498; potato dextrose broth pH 3.8; read-out: Minimal Inhibitory Concentration (MIC)
[20] = system: Botrytis cinerea; conditions: Botrytis cinerea, DSM5145; Strain ID DSM 5145; potato dextrose broth pH 3.8; read-out: Minimal Inhibitory Concentration (MIC)
[21] = system: Pseudomonas fluorescens; conditions: Pseudomonas fluorescens; Strain ID DSM50337; potato dextrose broth pH 3.8; read-out: Minimal Inhibitory Concentration (MIC)
[22] = system: Enterococcus faecalis; conditions: Enterococcus faecalis, ATCC7080; Strain ID ATCC 7080; potato dextrose broth pH 3.8; read-out: Minimal Inhibitory Concentration (MIC)
[23] = system: Leuconostoc mesenteroides ssp. mesenteroides; conditions: Leuconostoc mesenteroides, DSM20343; Strain ID DSM 20343; potato dextrose broth pH 3.8; read-out: Minimal Inhibitory Concentration (MIC)
[24] = system: Malassezia furfur; conditions: Malassezia furfur, DSM6170; Strain ID DSM 6170; potato dextrose broth pH 3.8; read-out: Minimal Inhibitory Concentration (MIC)
[25] = system: Enterobacter cloacae; conditions: Enterobacter cloacae, DSM6234; Strain ID DSM 6234; potato dextrose broth pH 3.8; read-out: Minimal Inhibitory Concentration (MIC)
[26] = system: Streptococcus mutans; conditions: Streptococcus mutans, DSM20523; Strain ID DSM 20523; potato dextrose broth pH 3.8; read-out: Minimal Inhibitory Concentration (MIC)
[27] = system: Pasteurella multocida ssp. multocida; conditions: Pasteurella multocida, DSM16031; Strain ID DSM 16031; potato dextrose broth pH 3.8; read-out: Minimal Inhibitory Concentration (MIC)

C[C@@H]1O[C@@H](O[C@H]2[C@H](O[C@H]3CC[C@@]4(C)[C@@H](CC[C@]5(C)[C@@H]4CC=C4[C@@H]6CC(C)(C)CC[C@]6(C(=O)O)CC[C@]45C)[C@]3(C)CO)OC[C@H](O)[C@@H]2O)[C@H](O)[C@H](O[C@@H]2OC[C@@H](O)[C@H](O)[C@H]2O)[C@H]1O [A, Sapindoside B [30994-75-3]]
MIC [1]: 80 µg/mL (≈ 90.6 µM) | MIC [2]: > 80 µg/mL | MIC [3]: > 80 µg/mL | MIC [4]: > 80 µg/mL | MIC [5]: > 80 µg/mL | MIC [6]: > 80 µg/mL | MIC [7]: > 80 µg/mL | MIC [8]: > 80 µg/mL | MIC [9]: > 80 µg/mL | MIC [10]: 140 µg/mL (≈ 159 µM) | MIC [11]: > 80 µg/mL | MIC [12]: > 80 µg/mL | MIC [13]: > 80 µg/mL | MIC [14]: > 80 µg/mL | MIC [15]: > 80 µg/mL | MIC [16]: > 80 µg/mL | MIC [17]: > 80 µg/mL | MIC [18]: > 80 µg/mL | MIC [19]: 40 µg/mL (≈ 45.3 µM) | MIC [20]: > 80 µg/mL | MIC [21]: > 80 µg/mL | MIC [22]: > 80 µg/mL | MIC [23]: > 80 µg/mL | MIC [24]: > 80 µg/mL | MIC [25]: > 80 µg/mL | MIC [26]: > 80 µg/mL | MIC [27]: > 80 µg/mL
